According to ChEMBL document CHEMBL3817759, “Novel drug design for Chagas disease via targeting Trypanosoma cruzi tubulin: Homology modeling and binding pocket prediction on Trypanosoma cruzi tubulin polymerization inhibition by naphthoquinone derivatives” (Bioorg Med Chem, 2016):

Tests used:
[1] = Inhibition of Trypanosoma cruzi tubulin polymerization incubated at room temperature for 15 mins followed by 5 mins at 4 degC in presence of GTP by photometric method
Trypanosoma cruzi = test: Antitrypanosomal activity against epimastigote stage of Trypanosoma cruzi Tulahuen CL98 after 48 hrs by hemocytometry; assay type: functional, organism-based; details: Tulahuen CL98, 48 h

| Compound | IC50 [1] [µM] | IC50 (Trypanosoma cruzi) [µM] |
| --- | --- | --- |
| CCCC(=O)N(C(=O)CCC)C1=C(Cl)C(=O)c2ccccc2C1=O | 3.2 | 0.7 |
| O=C1C(Cl)=C(N(C(=O)c2cccc(Cl)c2)C(=O)c2cccc(Cl)c2)C(=O)c2ccccc21 | 8 | 2.23 |
| O=C1C(Cl)=C(N2C(=O)c3ccccc3C2=O)C(=O)c2ccccc21 | 12 | 4.83 |
| O=C1C(Cl)=C(N(C(=O)CCl)C(=O)CCl)C(=O)c2ccccc21 | > 40 | 6.1 |
| O=C1C(Cl)=C(N2C(=O)CCC2=O)C(=O)c2ccccc21 | 6 | 2.77 |
| CC1CS(=O)(=O)CCN1/N=C/c1ccc([N+](=O)[O-])o1 (stereo unspecified) [NIFURTIMOX] | – | 10.7 |
